Here are results for 13 compounds from patent US20100285145A1, “GPR 119 MODULATORS” (PFIZER INC, priority 2009, published 2010).

“And” between values parts separate entries of the source, which are not always exact repeats. Identical values can stand only once.

Assay [1] has as its target T1, human GPR119 (Homo sapiens, UniProt Q8TDV5).
T1 sequence (Q8TDV5 1-335): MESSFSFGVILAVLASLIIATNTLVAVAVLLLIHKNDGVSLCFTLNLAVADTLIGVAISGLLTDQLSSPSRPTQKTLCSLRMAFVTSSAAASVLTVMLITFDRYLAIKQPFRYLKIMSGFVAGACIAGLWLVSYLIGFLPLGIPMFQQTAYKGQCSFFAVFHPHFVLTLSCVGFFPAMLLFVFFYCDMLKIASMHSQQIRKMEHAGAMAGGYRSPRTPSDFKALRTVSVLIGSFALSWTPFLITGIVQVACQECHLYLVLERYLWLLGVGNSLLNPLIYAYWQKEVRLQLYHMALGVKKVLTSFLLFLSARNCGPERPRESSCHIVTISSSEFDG
The assay can be described thus: cAMP HTRF functional assay (hGPR119 HEK-CRE beta-lactamase cells). The assay is classed as cell-based. Details: host or cells: HEK293-CRE beta-lactamase. To be noted: for Emax: read-out: Intrinsic Activity (Human cAMP). In outline:
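hGPR119 HEK-CRE cells (5000/well), cultured overnight, then treated 30 min at room temperature with compound plus 400 microM IBMX (0.58% DMSO). cAMP measured by competitive HTRF immunoassay after 60 min lysis/detection, converted to nM via standard curve; EC50 from 4-parameter logistic fit.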
Background: TR-FRET usually uses a lanthanide donor and a delayed reading to cut background.

For assay [2], the target named is T1, human GPR119. Description: β-Arrestin PathHunter assay (U2OS hGPR119 β-arrestin cells). It is filed as cell-based. The conditions noted are these: for EC50: read-out: Human B-arrestin Functional EC50; for Emax: U2OS, read-out: Intrinsic Activity (Human B-arrestin). As to the method:
GPR119 agonist activity was also determined with a cell-based assay utilizing DiscoverX PathHunter β-arrestin cell assay technology and their U2OS hGPR119 β-arrestin cell line (DiscoverX Cat # 93-0356C3). In this assay, agonist activation is determined by measuring agonist-induced interaction of β-arrestin with activated GPR119. A small, 42 amino acid enzyme fragment, called ProLink was appended to the C-terminus of GPR119. Arrestin was fused to the larger enzyme fragment, termed EA (Enzyme Acceptor). Activation of GPR119 stimulates binding of arrestin and forces the complementation of the two enzyme fragments, resulting in formation of a functional β-galactosidase enzyme capable of hydrolyzing substrate and generating a chemiluminescent signal.
Specifically, U2OS hGPR119 β-arrestin cells (DiscoverX 1×10^7/mL) are removed from cryopreservation and diluted in growth medium (Minimum essential medium (MEM; Gibco Cat # 11095-080), 10% heat inactivated fetal bovine serum (HIFBS; Sigma Cat # F4135-100), […] sodium pyruvate (Sigma Cat # S8636), 500 microg/mL G418 (Sigma Cat # G8168) and 250 microg/mL Hygromycin B (Invitrogen Cat # 10687-010). The cell concentration was adjusted to 1.66×10^5 cells/mL and 30 mLs of this suspension was added to a T-175 flask and incubated at 37 degrees Celsius in a humidified environment in 5% carbon dioxide. After 24 hours, the cells were removed from the T-175 flask with enzyme-free cell dissociation buffer (Gibco cat #13151-014), centrifuged at 800×g and then re-suspended in plating medium (Opti-MEM I (Invitrogen/BRL Cat # 31985-070) and 2% charcoal dextran treated fetal bovine serum (CD serum; HyClone Cat # SH30068.03).
The cell concentration was adjusted to 2.5×10^5 cells/mL with plating medium and 20 microliters of this cell suspension (5000 cells) was added to each well of a white Greiner 384-well low volume assay plate (VWR cat #82051-458) and the plates were incubated at 37 degrees Celsius in a humidified environment in 5% carbon dioxide.
After 16 hours (overnight) the assay plates were removed from the incubator and varying concentrations of each compound to be tested (diluted in assay buffer (1×HBSS+CaCl2+MgCl2 (Gibco Cat # 14025-092), 20 mM HEPES pH 7.0 (Gibco Cat # 15630-080) and 0.1% BSA (Sigma Cat # A9576)) were added to the assay plate wells in a volume of 5 microliters (final DMSO concentration was 0.5%). After a 90 minute incubation at 37 degrees Celsius in a humidified environment in 5% carbon dioxide, 12 microliters of Galacton Star β-galactosidase substrate (PathHunter Detection Kit (DiscoveRx Cat # 93-0001); prepared as described in the manufacturers assay protocol) was added to each well of the assay plate. The plates were incubated at room temperature and after 60 minutes, changes in the luminescence were read with an Envision 2104 multilabel plate reader at 0.1 seconds per well. EC50 determinations were made from an agonist-response curves analyzed with a curve fitting program using a 4-parameter logistic dose response equation.

Setting [3] is: HTRF cAMP, 30 min, 400 microM IBMX, each line a separate determination.
Setting [4] is: percent of maximal activity relative to standard GPR119 agonist at 10 micromolar.
Setting [5] is: U2OS hGPR119 β-arrestin cells, 90 min, each line a separate determination.
The mark [6] stands for this setting: curve was extrapolated to 100% to calculate an EC50.
[7] abbreviates: marked **: curve was extrapolated to 100%.

The term EC50 denotes the concentration needed to bring the measured effect to its halfway point. For the compound `CC(C)OC(=O)N1CCC(Oc2cc(N3CCc4cc(S(C)(=O)=O)ccc43)ncn2)CC1` [Example 3, Isopropyl 4-({6-[5-(methylsulfonyl)-2,3-dihydro-1H-indol-1-yl]pyrimidin-4-yl}oxy)piperidine-1-carboxylate], the EC50 on human GPR119 [1] (setting [3]) was 28.8 nM and 126 nM and 225 nM and 199 nM and 49.4 nM and 152 nM and 63.7 nM and 202 nM and 201 nM and 104 nM; on human GPR119 [2] (setting [5]), 22.1 nM and 14.9 nM and 72.2 nM. On human GPR119 [1] (setting [4]), the “Intrinsic Activity (Human cAMP)” value is given as 107%. The “Intrinsic Activity (Human B-arrestin)” value on human GPR119 [2] (setting [4]) is 75.8% and 62.2% and 87.9%.

Consider `Cc1c(O[C@@H]2[C@@H]3COC[C@H]2CN(C(=O)OC(C)C)C3)ncnc1N1CCc2ncccc21` [Example 29, Isopropyl (9-syn)-9-{[6-(2,3-dihydro-1H-pyrrolo[3,2-b]pyridin-1-yl)-5-methylpyrimidin-4-yl]oxy}-3-oxa-7-azabicyclo[3.3.1]nonane-7-carboxylate], for which the EC50 at human GPR119 [1] (setting [3]) and on human GPR119 [2] (setting [5]) was more than 10000 nM each time.

As for `CC(C)OC(=O)N1CCC(Oc2cc(N3CCc4cc(C#N)ccc43)ncn2)CC1` [Example 10, Isopropyl 4-{[6-(5-cyano-2,3-dihydro-1H-indol-1-yl)pyrimidin-4-yl]oxy}piperidine-1-carboxylate], on human GPR119 [1] (setting [3]), the EC50 was 13.8 nM and 32.9 nM. Further, on human GPR119 [1] (setting [4]), the “Intrinsic Activity (Human cAMP)” value is listed as 105% and the Emax is 104%.

With `Cc1c(O[C@H]2CCN(C(=O)OC3(C)CC3)C[C@H]2F)ncnc1N1CCc2ncccc21` [Example 17, 1-Methylcyclopropyl (3R,4S)-4-{[6-(2,3-dihydro-1H-pyrrolo[3,2-b]pyridin-1-yl)-5-methylpyrimidin-4-yl]oxy}-3-fluoropiperidine-1-carboxylate], the EC50 at human GPR119 [1] (setting [3]) is 19 nM and 28.5 nM and 13.7 nM and 14.8 nM and 16.9 nM and 19.4 nM; on human GPR119 [2] (setting [5]), 2.13 nM and 5.86 nM and 6.62 nM and 5.05 nM and 4.7 nM. For the same compound, the “Intrinsic Activity (Human cAMP)” value at human GPR119 [1] (setting [4]) was 69.6% and 48.7% and 53.8% and 63.9% and 53.1% and 48.5%. Further, at human GPR119 [2] (setting [4]), the “Intrinsic Activity (Human B-arrestin)” value is 68.9% and 54.3% and 59.2% and 52.8% and 76.9%.

For `Cc1c(O[C@H]2[C@@H]3COC[C@H]2CN(C(=O)OC2(C)CC2)C3)ncnc1N1CCc2ncccc21` [Example 25, 1-Methylcyclopropyl (9-anti)-9-{[6-(2,3-dihydro-1H-pyrrolo[3,2-b]pyridin-1-yl)-5-methylpyrimidin-4-yl]oxy}-3-oxa-7-azabicyclo[3.3.1]nonane-7-carboxylate], the “Intrinsic Activity (Human cAMP)” value on human GPR119 [1] (setting [4]) was 52.9% and 68.3% and 67.7% and 74.3% and 62.9%. Besides, at human GPR119 [2] (setting [5]), the EC50 was 14.7 nM and 12.4 nM and 19.3 nM and 40.7 nM and 18.2 nM. Also, the “Intrinsic Activity (Human B-arrestin)” value at human GPR119 [2] (setting [4]) was 58.7% and 81% and 78.6% and 68.6% and 74.5%.

With `CC(C)OC(=O)N1CCC(Oc2cc(N3CCc4cc(C(=O)N(C)C)ccc43)ncn2)CC1` [Example 9, 4-[6-(5-Dimethylcarbamoyl-2,3-dihydroindol-1-yl)-pyrimidin-4-yloxy]-piperidine-1-carboxylic acid isopropyl ester], the EC50 at human GPR119 [1] (setting [3]) was 70.9 nM. Further, the Emax at human GPR119 [1] (setting [4]) came to 97.5%.

For the compound `CC(C)OC(=O)N1CCC(Oc2cc(N3CCc4ncccc43)ncn2)CC1` [Example 12, Isopropyl 4-{[6-(2,3-dihydro-1H-pyrrolo[3,2-b]pyridin-1-yl)pyrimidin-4-yl]oxy}piperidine-1-carboxylate], the EC50 on human GPR119 [1] (setting [3]) is 784 nM and 1140 nM and 1180 nM and 331 nM and 792 nM; at human GPR119 [1] (setting [6]), 8150 nM and 9620 nM and 8350 nM and 9480 nM; on human GPR119 [2] (setting [6]), 2570 nM. Moreover, the “Intrinsic Activity (Human cAMP)” value was 100** % on human GPR119 [1] (setting [7]); 56.5% (2×) and 53.6% and 44% at human GPR119 [1] (setting [4]). The Emax was 100% on human GPR119 [1] (setting [7]), 56% on human GPR119 [1] (setting [4]) and 100% on human GPR119 [2] (setting [7]).

`Cc1c(O[C@H]2[C@@H]3COC[C@H]2CN(C(=O)OC2(C)CCC2)C3)ncnc1N1CCc2ncccc21` [Example 27, 1-Methylcyclobutyl (9-anti)-9-{[6-(2,3-dihydro-1H-pyrrolo[3,2-b]pyridin-1-yl)-5-methylpyrimidin-4-yl]oxy}-3-oxa-7-azabicyclo[3.3.1]nonane-7-carboxylate]: the EC50 at human GPR119 [1] (setting [3]) was 74.5 nM and 68.9 nM and 42.7 nM and 69.8 nM. Also, on human GPR119 [1] (setting [4]), the “Intrinsic Activity (Human cAMP)” value was 43.5% and 30.6% and 28.4%; the Emax is 39.1%. At human GPR119 [2] (setting [5]), the EC50 is 4.02 nM and 22.9 nM and 5.81 nM and 11 nM. On human GPR119 [2] (setting [4]), the Emax turned out to be 63.5%; the “Intrinsic Activity (Human B-arrestin)” value was 64.2% and 58.1% and 51.4%.

As for `Cc1c(O[C@H]2[C@@H]3COC[C@H]2CN(C(=O)OC(C)C)C3)ncnc1N1CCc2ncccc21` [Example 22, Isopropyl (9-anti)-9-{[6-(2,3-dihydro-1H-pyrrolo[3,2-b]pyridin-1-yl)-5-methylpyrimidin-4-yl]oxy}-3-oxa-7-azabicyclo[3.3.1]nonane-7-carboxylate], the EC50 at human GPR119 [1] (setting [3]) was 116 nM and 169 nM and 137 nM and 269 nM. For the same compound, on human GPR119 [1] (setting [4]), the “Intrinsic Activity (Human cAMP)” value was 80.4% and 66.6% and 74.1% and 55.6%. For the same compound, on human GPR119 [2] (setting [5]), the EC50 is 40.2 nM and 33.1 nM and 74.6 nM and 41.8 nM. On human GPR119 [2] (setting [4]), the Emax stood at 68.8%; the “Intrinsic Activity (Human B-arrestin)” value is 70.5% and 71.2% and 60.3%.

For `Cc1c(OC2CCN(C(=O)OC(C)C)CC2)ncnc1N1CCc2ncccc21` [Example 13, Isopropyl 4-{[6-(2,3-dihydro-1H-pyrrolo[3,2-b]pyridin-1-yl)-5-methylpyrimidin-4-yl]oxy}-piperidine-1-carboxylate], the EC50 on human GPR119 [1] (setting [3]) is 24.1 nM and 39.7 nM and 76.3 nM and 30.2 nM; at human GPR119 [2] (setting [5]), 89.4 nM. The “Intrinsic Activity (Human cAMP)” value at human GPR119 [1] (setting [4]) is 19.5% and 29.2% and 24.4%. The results for the Emax at human GPR119 [1] (setting [4]) and at human GPR119 [2] (setting [4]) were 20.3% and 29.1%, respectively.

On to `CC(C)OC(=O)N1C[C@H]2COC[C@@H](C1)[C@H]2Oc1cc(N2CCc3cc(S(C)(=O)=O)ccc32)ncn1` [Example 1, Isopropyl 9-anti-({6-[5-(methylsulfonyl)-2,3-dihydro-1H-indol-1-yl]pyrimidin-4-yl}oxy)-3-oxa-7-azabicyclo[3.3.1]nonane-7-carboxylate], for which, at human GPR119 [1] (setting [3]), the EC50 is 339 nM and 567 nM and 1280 nM. At human GPR119 [1] (setting [4]), the “Intrinsic Activity (Human cAMP)” value was 94% and 87.9%; the Emax was 96.5%.

`Cc1c(OC2CCN(C(=O)OC(C)C)CC2)ncnc1N1CCc2cc(S(C)(=O)=O)ccc21` [Example 8, Isopropyl 4-({5-methyl-6-[5-(methylsulfonyl)-2,3-dihydro-1H-indol-1-yl]pyrimidin-4-yl}oxy)piperidine-1-carboxylate]: the EC50 at human GPR119 [1] (setting [3]) turned out to be 43.9 nM. On human GPR119 [1] (setting [4]), the Emax turned out to be 53%.

Compound `CC(C)OC(=O)N1CCC(Oc2cc(N3CCc4cc(S(=O)(=O)CCO)ccc43)ncn2)CC1` [Example 11, Isopropyl 4-[(6-{5-[(2-hydroxyethyl)sulfonyl]-2,3-dihydro-1H-indol-1-yl}pyrimidin-4-yl)oxy]piperidine-1-carboxylate] had an EC50 at human GPR119 [1] (setting [3]) of 99.4 nM. At human GPR119 [1] (setting [4]), the Emax was 90.3%.
